Where two headings read alike, the source gives them in different places.

From patent US20230295201A1 (Gilead Sciences, Inc., priority 2020, published 2023) come the findings set out here.

Type in all cases: cell-based
One test relates to RSV strain A2. The experiment in a line: RSV HEp-2 EC50 (infectious cytopathic cell protection assay). The following applies: human respiratory syncytial virus, HEp-2 cells, RSV A2, 4 days, read-out: RSV HEp-2 EC50. The method in brief:
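HEp-2 cells mixed with titered RSV A2 at 50,000 cells/ml were added to plates holding 3-fold serial compound dilutions in DMSO, then incubated 4 days at 37° C. Cytoprotection was read as cell viability by CellTiter-Glo luminescence and converted to percent inhibition against 0% and 100% inhibition controls.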

The test system of a further test is HRV16. The experiment in a line: HRV16 HELA EC50 (cytopathic effect in H1-HeLa cells). As to the method: H1-HeLa cells, cultured in complete DMEM medium containing 10% heat-inactivated FBS and 1% Penicillin/Streptomycin, were seeded in 96 well plates at 3000 cells/well one day prior to compound dosing and infection. The antiviral activity of each compound was measured in triplicate. Compounds were added directly to the cell cultures in serial 3-fold dilutions using the HP300 digital dispenser (Hewlett Packard, Palo Alto, CA) immediately prior to infection. The plates were transferred to BSL-2 containment and the appropriate dilution of virus stock, previously determined by titration and prepared in cell culture media, was added to test plates containing cells and serially diluted compounds. Each plate included 6 wells of infected untreated cells and 6 wells of uninfected cells that served as 0% and 100% virus inhibition control, respectively. Following the infection, test plates were incubated for 96 h in a tissue culture incubator set to 33° C./5% CO2. Following incubation, the H1-HeLa cells were removed from incubation and allowed to equilibrate to 25° C. Cell viability was determined by removing 100 μL of culture medium and adding 100 μL of Cell-Titer Glo viability reagent. The mixtures were incubated on a shaker for 10 minutes at 25° C., and the luminescence signal was quantified on an Envision luminescence plate reader.
For orientation: Protection from cytopathic effect is a common read-out in antiviral testing.

The subject of a further test is RSV A2. The experiment in a line: RSV NHBE EC50 (RSV A2 antiviral assay in normal human bronchial epithelial cells). The following applies: human respiratory syncytial virus, 96 h, NHBE cells, RSV A2, 4 days, read-out: RSV NHBE EC50.
The next test has as its system DENV2 replicon. The experiment in a line: DENV-2 Huh-7 Rep EC50 (replicon luminescence). The note with it: Dengue virus, DENV2, Huh-7, 48 h, read-out: DENV-2 Huh-7 Rep EC50. As to the method: In 384 well plates (Greiner, Cat #781091), compounds were acoustically transferred at 200 nl per well in a 8 compound (4 replicates) or 40 compound dose response format (3 replicates). For all plates tested, Balapiravir, GS-5734 and NITD008 were included as positive inhibition controls alongside 0% inhibition, DMSO-only negative control wells. Following compound addition, Huh-7 cells containing the DENV2 replicon construct were harvested following standard cell culture procedures and were adjusted to a concentration of 1.25E5 cells/mL in cell culture media composed of cDMEM without genticin. 40 μL of the cell stock was then added to each well for a final cell density of 5,000 cells/well. Cell and compound mixtures were incubated at 37° C./5% CO2 for 48 hours. Prior to harvesting cells, EnduRen Live Cell Substrate (Promega, Cat #E6481) was prepared by suspending 3.4 mg into 100 uL of DMSO to generate a 60 mM stock solution. The stock solution was then diluted 1:200 in pre-warmed cDMEM and 10 uL of this diluted solution was added to each well of the 384 well plates. Plates were then centrifuged at 500 rpm briefly and were placed on a plate shaker for 2 min. Following mixing, plates were incubated at […] for 1.5 hours prior to measuring luminescence on an Envision luminometer.
(In general: A replicon is a self-replicating genome or part of one, used to study replication in cells.)

The mark [1] stands for this setting: 96 h, H1-HeLa cells, 33° C., read-out: HRV16 HELA EC50.
Where [2] appears, read: H1-HeLa cells, 96 h, 33° C.; read-out: HRV16 HELA EC50.

`CC(C)[C@H](N)C(=O)OCCNP(=O)(OC[C@@]1(C#N)O[C@@H](c2ccc3c(N)ncnn23)[C@H](O)[C@@H]1O)Oc1ccccc1` (stereo partly drawn) [Example 131, (2S)-2-(((((2R,3S,4R,5S)-5-(4-aminopyrrolo[2,1-f][1,2,4]triazin-7-yl)-2-cyano-3,4-dihydroxytetrahydrofuran-2-yl)methoxy)(phenoxy)phosphoryl)amino)ethyl 2-amino-3-methylbutanoate]: the EC50 (in general, the concentration needed to bring the measured effect to its halfway point) with RSV strain A2 (HEp-2, 96 h) is 315 nM; in the test on HRV16 (setting [1]) it was 1810 nM; in the test with RSV A2 (NHBE), 636 nM; in the test with DENV2 replicon (Huh-7 replicon cells, 48 hours), more than 50000 nM.

Turning to `C[C@H](NP(=O)(OC[C@@]1(C#N)O[C@@H](c2ccc3c(N)ncnn23)[C@H](O)[C@@H]1O)Oc1ccccc1)C(=O)O[C@H]1CC[C@H](C(C)(C)C)CC1` (stereo partly drawn) [Example 21, trans-4-(tert-butyl)cyclohexyl ((((2R,3S,4R,5S)-5-(4-aminopyrrolo[2,1-f][1,2,4]triazin-7-yl)-2-cyano-3,4-dihydroxytetrahydrofuran-2-yl)methoxy)(phenoxy)phosphoryl)-L-alaninate], the EC50 amounted to 79 nM in the test with RSV strain A2 (HEp-2, 96 h); 230 nM in the test with HRV16 (setting [1]); 27 nM with RSV A2 (NHBE); 11000 nM with DENV2 replicon (Huh-7 replicon cells, 48 hours).

In the case of `CC(=O)N1CC[C@@H](OC(=O)[C@H](C)NP(=O)(OC[C@@]2(C#N)O[C@@H](c3ccc4c(N)ncnn34)[C@H](O)[C@@H]2O)Oc2ccccc2)C1` (stereo partly drawn) [Example 146, (2S)—(R)-1-acetylpyrrolidin-3-yl 2-(((((2R,3S,4R,5S)-5-(4-aminopyrrolo[2,1-f][1,2,4]triazin-7-yl)-2-cyano-3,4-dihydroxytetrahydrofuran-2-yl)methoxy)(phenoxy)phosphoryl)amino)propanoate], the EC50 was 9720 nM in the test on RSV strain A2 (HEp-2, 96 h); more than 50000 nM with HRV16 (setting [1]); more than 5000 nM in the test with RSV A2 (NHBE); more than 50000 nM in the test on DENV2 replicon (Huh-7 replicon cells, 48 hours).

For the compound `C[C@H](NP(=O)(OC[C@@]1(C#N)O[C@@H](c2ccc3c(N)ncnn23)[C@H](O)[C@@H]1O)Oc1ccccc1)C(=O)OC1CCNCC1` (mixture of isomers) [Example 145, (2S)-piperidin-4-yl 2-(((((2R,3S,4R,5S)-5-(4-aminopyrrolo[2,1-f][1,2,4]triazin-7-yl)-2-cyano-3,4-dihydroxytetrahydrofuran-2-yl)methoxy)(phenoxy)phosphoryl)amino)propanoate], the EC50 with RSV strain A2 (HEp-2, 96 h) is 2900 nM; in the test with HRV16 (setting [1]) it was 46200 nM; with RSV A2 (NHBE), more than 5000 nM; with DENV2 replicon (Huh-7 replicon cells, 48 hours), more than 100000 nM.

As to `C[C@@H](NP(=O)(OC[C@@]1(C#N)O[C@@H](c2ccc3c(N)ncnn23)[C@H](O)[C@@H]1O)Oc1ccccc1)C(=O)O[C@H]1CC[C@H](C(F)(F)F)CC1` (single isomer, unassigned) [Example 195], the EC50 with RSV strain A2 (HEp-2, 96 h) was 2590 nM; in the test on HRV16 (setting [2]) it was 2550 nM; with RSV A2 (NHBE) it was 678 nM; in the test on DENV2 replicon (Huh-7 replicon cells, 48 hours), more than 100000 nM.

Regarding `C[C@H](NP(=O)(N[C@@H](C)C(=O)OCc1ccccc1)OC[C@@]1(C#N)O[C@@H](c2ccc3c(N)ncnn23)[C@H](O)[C@@H]1O)C(=O)OCc1ccccc1` [Example 219], the EC50 in the test on RSV strain A2 (96 h) was 1760 nM; in the test on HRV16 (setting [2]) it was 6040 nM; in the test with RSV A2, 178 nM; with DENV2 replicon it was more than 50000 nM.

In the case of `CCOC(=O)[C@H](CC)NP(=O)(OC[C@@]1(C#N)O[C@@H](c2ccc3c(N)ncnn23)[C@H](O)[C@@H]1O)Oc1ccccc1` (stereo partly drawn) [Example 97, (2S)-ethyl 2-(((((2R,3S,4R,5S)-5-(4-aminopyrrolo[2,1-f][1,2,4]triazin-7-yl)-2-cyano-3,4-dihydroxytetrahydrofuran-2-yl)methoxy)(phenoxy)phosphoryl)amino)butanoate], the EC50 with RSV strain A2 (HEp-2, 96 h) was 537 nM; with HRV16 (setting [1]) it was 4420 nM; with RSV A2 (NHBE) it was 1370 nM; with DENV2 replicon (Huh-7 replicon cells, 48 hours), more than 100000 nM.
